Data: a melting point compilation (Tetko et al.; mined from patent text by program, amines drawn as free bases though some values may be those of a salt)

| Compound | melting point [°C] |
| --- | --- |
| COc1ccn2nc(-c3ccc(F)cc3)c(-c3ccc(=O)n(C)n3)c2c1 | 221 to 222 |
| Cc1cccc(NC(=O)NC2N=C(c3ccccc3F)c3ccccc3N(Cc3ncccc3C(=O)N3CCCC3)C2=O)c1 (racemic) | 153 to 155 |
| COc1cccc(OC)c1C(=O)Nc1nnc(-c2cccc(O)c2)s1 | 243 to 245 |
| C#CCn1c(-c2c(Cl)cccc2Cl)nc(-c2ccncc2)c1-c1ccc(Cl)cc1 | 169 to 172 |
| CCc1ccc2ncc(-c3nnn[nH]3)c(=O)n2c1 | 289 to 290 |
| Nc1c(-c2cc(Cl)ccc2O)c2c(C(F)(F)F)cccc2[nH]c1=O | 267 to 268 |
| c1ccc(-n2nnnc2OCC2CO2)cc1 (stereo not drawn) | 77 to 81 |
| Cc1cc(-c2ccnc(Cl)c2)n(-c2ccc(Cl)cc2)n1 | 110 |
| ClC(=NNc1c(Cl)cc(Cl)cc1Cl)c1ccccc1 | 93 to 94.5 |
| CC(=O)Nc1c(C#N)cnn1-c1c(Cl)cc(Cl)cc1Cl | 163 to 164 |
| Cc1cccc(-c2nc(Cl)cc(Cl)n2)c1 | 80 to 81 |
| COC(=O)c1ccc(OC(=O)c2ccc(C(=O)Oc3ccc(C(=O)OC)cc3)cc2)cc1 | 243 to 245 |
| Cc1cccc(-c2cn(C)cc(-c3ccccc3)c2=O)c1 | 79.5 |
| CCCCCCCNC(=O)Nc1ccc(CCc2cc(C(C)(C)C)c(O)c(C(C)(C)C)c2)cc1 | 151 to 152 |
| CC(=O)C1Oc2cc3c(cc2O1)=NC(F)(F)N=3 | > 220 |
| O=[N+]([O-])N=C1NCCCN1CC1CCOC1 (stereo not drawn) | 87.5 to 90.8 |
| CSc1ccc(C(=O)NC[C@H]2O[C@@H]2c2ccccc2)cc1 (racemic) | 110 |
| CNCC(O)c1cn(C(c2ccccc2)(c2ccccc2)c2ccccc2)cn1 (stereo not drawn) | 169 to 171 |
| CCOC(=O)C1(C(=O)OCC)CCC2(CC1)NCCc1cc(OC)ccc12 | 81 to 83 |
| CSC(Oc1cc2cc(Br)cnc2cc1F)C(=O)NC(C)(C)C (stereo not drawn) | 144 to 145 |
| BrCc1ccc(-c2ccc(CBr)cc2)cc1 | 166 to 168 |
| CN1CC(CN2CC(=O)NC2=O)=CC2c3cccc4[nH]cc(c34)CC21 (stereo not drawn) | 204 to 206 |
| COC(=O)c1ccc2c3cccc4cccc(c5ccc(C(=O)N(C)c6cc(C(C)(C)C)ccc6C(C)(C)C)c1c25)c43 | 297 to 298 |
| Cc1ccccc1Cc1ccc(=O)[nH]n1 | 156 to 157 |
| COc1ccc(-c2cc(=S)n(C)c(=O)n2C)cc1OC | 146 to 148 |

| Compound | melting point [°C] |
| --- | --- |
| O=C1C=C(c2ccc(O)cc2)S(=O)(=O)c2ccccc21 | 222 to 224 |
| O=C(Nc1ccc(C(=O)N2CCc3cn[nH]c3-c3sccc32)c(Cl)c1)c1cc(Cl)ccc1F | 282 to 288 |
| Cc1ncn(-c2ccccc2C#N)n1 | 109 to 110 |
| OCc1cnc2cc(Br)ccc2c1O | > 300 |
| O=S(=O)(Nc1ncnc(Cl)c1-c1ccc(Cl)cc1)c1ccc(C(F)(F)F)cc1 | 275 |
| CCCCCCCCN(SN(C(=O)NC(=O)c1ccccc1[N+](=O)[O-])c1ccc(Oc2ncc(Br)cn2)c(Cl)c1)C(=O)OC | 51 to 54 |
| O=C(Nc1cccc(C(F)(F)F)c1)c1cccc2cc(Oc3cc(COCc4ccccc4)ncn3)ccc12 | 123 to 124 |
| O=C(O)CCc1cn(Cc2ccc(F)cc2)c2ccc(C(=O)CC(=O)C(=O)O)cc2c1=O | 184 to 187 |
| COc1c(C=C[N+](=O)[O-])cc2c(c1OC)CCC2 | 104 |
| CC(C)OC(=O)Nc1ccc(Cl)c(-c2ccnc3c(C(=O)c4cccs4)cnn23)c1 | 234 to 236 |
| Cc1ccncc1Cn1nnnc1-c1cc(Cl)ccc1Cl | 169 to 171 |
| COc1ccc(-c2ocnc2-c2cc(OC)c(Br)c(OC)c2)cc1N | 180 to 184 |
| IC(I)=C(I)Cn1nnc(-c2ccccc2)n1 | 188 |
| Clc1cc(Cl)c(Cl)c(CBr)c1 | 40 to 42 |
| O=CNCCNC1=NS(=O)(=O)c2cc(Cl)ccc2N1 | 245 to 247 |
| O=S(=O)(NCCCCOc1ccc(-n2cnnn2)cc1)c1cccc2nsnc12 | 142 to 143 |
| CC(C)(C)c1ccc(C(=O)Nc2cn3cc(-c4ccoc4)ccc3n2)cc1 | 258 to 259 |
| c1ccc2c(c1)Cc1cccnc1O2 | 87 to 88 |
| Fc1cc(F)c2c(Nc3c(Cl)ccc4c3OCO4)ncnc2c1 | 234 to 237 |
| CCCCN(c1nc(NCCN)nc(N(CCCC)C2CC(C)(C)NC(C)(C)C2)n1)C1CC(C)(C)NC(C)(C)C1 | 140 |
| CC(=O)Nc1ccc(OCC(=O)O)c(C(=O)NCc2ccc(Br)cc2F)c1 | 235 |
| COc1nccc2c1ccn2-c1ccc(C(F)(F)F)cc1Cl | 112 to 115 |
| CC(N)C(N)CC(=O)c1ccccc1 (stereo not drawn) | 106 to 107 |
| O=C(O)C=Cc1ccc(CCNS(=O)(=O)c2ccc(Cl)cc2)cc1 | 85 to 86 |
| COc1ccc2c(=O)[nH]ncc2c1 | 200 to 205 |

The remaining lines, values ahead:

| melting point [°C] | Compound |
| --- | --- |
| 128 | CC(=O)OC1CSC(Oc2cccnc2-c2ccc(C)o2)C(OC(C)=O)C1OC(C)=O (stereo not drawn) |
| 157 | CCOc1ccc(C(=O)CC(C(=O)O)N2CCOCC2)cc1OC (stereo not drawn) |
| 272 to 274 | CC1(C)Oc2ccc(C#N)cc2[C@@H](N2CCSC2=NC#N)[C@@H]1O |
| 149 to 151 | O=C(NCC1CCN(CCc2ccccn2)CC1)c1ccc2nonc2c1 |
| 158 | COc1ccc2c(c1)C(=O)N(CCCN(C)CCN1C(=O)c3ccccc3C(C)(C)C1=O)C(=O)C2(C)C |
| 126 to 127 | COc1ccc(C2=NN(c3ccc(CCBr)cc3)C(=O)[C@H]3CC=CC[C@@H]23)cc1OC (relative stereo) |
| 93 to 99 | CCCCCCC1CC(Cn2cncn2)(c2ccccc2)N(C)O1 (stereo not drawn) |
| 93 | O=c1cnn(CCCCCl)c(=O)[nH]1 |
| 180 | Cc1c(SCCN2CCc3ccccc3C2)ccnc1CSc1nc2ncccc2[nH]1 |
| 66 to 70 | CCCCCCCCCCCCN1C(=O)CC(c2cc(C(C)(C)C)c(O)c(C(C)(C)C)c2)C1=O (stereo not drawn) |
| 92 to 95 | CN1C(=O)N(C[C@H](CO)[C@@H](CC2CCCC2)C(=O)N2CCCCC2)C(=O)C1(C)C |
| 115 to 117 | Cn1cc(CC(NC(=O)CCS)C(=O)O)c2ccccc21 (racemic) |
| 167 to 169 | COc1cc2c(cc1OC)C(C(=O)O)SCC2 (stereo not drawn) |
| 176 to 178 | CC1CCN(C(=O)NCCc2ccc(S(=O)(=O)NC(=O)NC3CCCCC3)cc2)C(=O)C1 (stereo not drawn) |
| 169 to 170 | O=C(CBr)Nc1cccc(F)c1C(=O)O |
| 113 to 114 | CNC(=C[N+](=O)[O-])NCCSCc1cc2ccc(CN(C)C)cc2o1 |
| 84 to 86 | CC(=O)CN1CCNC1=Nc1c(Cl)cccc1Cl |
| 168 to 175 | CC1(C)Oc2ccc(C#N)cc2C(N(C(N)=O)c2ccc3c(c2)CN(Cc2ccccc2)C3)C1O (stereo not drawn) |
| 185 to 186 | CCCCOc1c(CNC(=O)OC(C)(C)C)n(CC(C)C)c(=O)c2ccc(C(=O)O)cc12 |
| 208 to 209 | CCCCOc1nc(N)c2[nH]c(=O)n(CCCNc3cccc(CC(=O)OC)c3)c2n1 |
| 150 to 155 | CCC(CC)c1ccc(Cl)c2nc(Nc3c(C)noc3C)n(CCCCO)c12 |
| 132 to 146 | CC(C)CC(CS)C(=O)NCC(=O)NC(CCCNC(=N)N)C(=O)O (stereo not drawn) |
| 70 to 80 | O=C(c1ccc(F)cc1)N1CCN(CC(O)Cn2c3ccccc3c3ccccc32)CC1 (stereo not drawn) |
| 108 to 109 | CC(C)c1nc(CC(=O)O)c(-c2ccco2)o1 |

| melting point [°C] | Compound |
| --- | --- |
| 191 to 192 | COC(=O)N1OCC(=Cc2cc(C(C)(C)C)c(O)c(C(C)(C)C)c2)C1=O |
| 201 | COc1nc2ncnn2c(N2CCC(C)CC2)c1-c1ccc(C)cc1F |
| 149 to 150 | CN(Cc1ccccc1)C(=O)c1c(-c2ccncc2)c(-c2ccc(F)cc2)nn1C |
| 126 to 127 | COCCCNC(=O)NC(=O)C(C#N)=NO |
| 368 to 370 | O=C(O)c1cccc(N2C(=O)c3ccc([N+](=O)[O-])cc3C2=O)c1 |
| 160 to 161 | CC(C)(C)C(NC(=O)CCc1ccccc1)Nc1c(Nc2cccnc2Cl)c(=O)c1=O (stereo not drawn) |
| 130 to 131 | COCCOc1ccc(NC(=O)OCc2ccccc2)cc1C(=O)O |
| 207 to 209 | CC(C)c1c(/C=C/[C@@H]2C[C@@H](O)CC(=O)O2)n(-c2ccc(F)cc2)c(=O)c2ccccc12 |
| 104 to 106 | CC(CCC(=O)O)c1ccc(OCc2ccccc2C(=O)O)cc1 (stereo not drawn) |
| 136 to 137 | CCCCCS(=O)(=O)NC(=O)CCc1cc(C(C)(C)C)nn1Cc1ccc(C(F)(F)F)cc1Cl |
| 98 to 100 | COc1cccc(CN2CCN(CC(=O)N3CC=C(c4ccccc4)n4ncc(C#N)c43)CC2)c1 |
| 121 to 122 | CCOC(=O)Nc1cccc(C(=O)C=CN(C)C)c1 |
| 109 to 110 | CCCCc1nn(-c2ccc(C(F)(F)F)cn2)cc1CCCOc1nn(CC)cc1CC(=O)O |
| 116 to 118 | CCC(CC)Nc1c([N+](=O)[O-])cc(CC(=O)O)c(C(C)C)c1[N+](=O)[O-] |
| 117 to 118 | CS(=O)c1cccc(-c2ncn(CCCN3CCOCC3)c2-c2ccncc2)c1 (stereo not drawn) |
| 88 to 90 | CCCC(=O)c1cnc2c(OCCN(C)C)cccc2c1Nc1ccccc1C |
| 282 to 285 | COc1cccc2c1nc(C(F)F)n2-c1nc(N2CCOCC2)nc(N2CCC(NS(=O)(=O)C(F)(F)F)CC2)n1 |
| 155 to 156 | Cc1ccc(C(=O)Cc2nnnn2C)c(N)c1 |
| 95.5 to 100 | OCC1OC(n2cnc3c(NC4CCCc5ccccc54)ncnc32)C(O)C1O (stereo not drawn) |
| 164 | CC(C)(CNC1(c2ccccc2Cl)C(=O)Nc2ccc(Cl)cc21)NC(=O)OC(C)(C)C (stereo not drawn) |
| 208 to 212 | CCCn1c(=O)c(N=O)c(N)n(Cc2ccccc2)c1=O |
| 205 to 210 | N#CC(C(=O)Nc1ccccc1)C(=O)c1nn(-c2ccccc2)c2c1CSc1ccc(N=CN3CCOCC3)cc1-2 (stereo not drawn) |
| 212 to 214 | Cc1nc(Sc2cc(C(=O)O)ccn2)sc1CC(=O)O |
| 75 to 76 | CCc1cc(Oc2ccc([C@H](O)[C@@H](Cc3cccc(OC(F)(F)C(F)F)c3)C(=O)O)cc2)ccc1Cl (racemic) |
